Experimental data reported in patent US20260137706A1, “METHODS OF TREATING INFLAMMATORY DISEASES” (INTERLINE THERAPEUTICS, INC., priority 2023, published 2026).
Read-outs that look alike come from different tables or passages of the source.

Legend:
[1] = tested on: NF-κB pathway (SEAP) in THP1-Dual cells; assay: THP-1 Dual cell SEAP assay (L18-MDP stimulated); assay type: cell-based; conditions: Homo sapiens, THP1-Dual, read-out: NF-κB THP1 IC50 bin
Method in brief: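 THP1-Dual cells (~25,000/well) were preincubated 30 min with serially diluted compounds, then stimulated with 10 ng/mL L18-MDP (final) for 20-24 h at 37 °C. Supernatant SEAP was read with QUANTI-Blue at OD 620-655 nm after 2 h. IC50 came from non-linear fits of % inhibition versus DMSO/L18-MDP controls after media-blank subtraction.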

[2] = target: T1, GST-RIPK2 fusion protein (human RIPK2, amino acids 1-310) (Homo sapiens, UniProt O43353); assay: RIPK2 binding competition assay (TR-FRET, Tracer 199 displacement)
T1 construct: made in house; host or cells: baculovirus infected Sf9 cells
Method in brief: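 GST-RIPK2 (human aa 1-310, Sf9-expressed; final 1 nM) with Tracer 199 (final 10 nM) and Tb-anti-GST (final 0.5 nM) in Tris pH 7.5 buffer, 45 min at 22 °C. TR-FRET 665/620 nm ratio after 337 nm excitation; normalized to no-inhibitor (0%) and no-protein (−100%), giving IC50.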

[3] = target: T2, binding of His-XIAP(BIR2)-avi fusion protein to GST-RIPK2 fusion protein (RIPK2/XIAP) (Homo sapiens, UniProt O43353); assay: RIPK2-XIAP binding competition PPI assay (TR-FRET); conditions: RIPK2/XIAP binding competition PPI assay; for Emax: Amax, read-out: PPI Amax bin
T2 construct: made in house; host or cells: baculovirus infected Sf9 cells
Method in brief: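 Compounds (in DMSO, 100-fold stock) incubated 120 min at 23 °C with 1 nM GST-RIPK2 (aa 1-310) and 25 nM His-XIAP(BIR2 aa 152-231)-avi, plus anti-His-XL665 and anti-GST-Tb, in pH 7.5 Tris buffer. Read-out: 665/520 nm emission ratio. Normalized to no-inhibitor (0%) and 50 nM GSK583 (−100%); Amax binned A–D.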

[4] = 10 nM Tracer 199, 1 nM GST-RIPK2, read-out: RIPK2 IC50
[5] = RIPK2 IC50 (nM), 10 nM Tracer 199, 1 nM GST-RIPK2

T1 sequence (O43353 1-310): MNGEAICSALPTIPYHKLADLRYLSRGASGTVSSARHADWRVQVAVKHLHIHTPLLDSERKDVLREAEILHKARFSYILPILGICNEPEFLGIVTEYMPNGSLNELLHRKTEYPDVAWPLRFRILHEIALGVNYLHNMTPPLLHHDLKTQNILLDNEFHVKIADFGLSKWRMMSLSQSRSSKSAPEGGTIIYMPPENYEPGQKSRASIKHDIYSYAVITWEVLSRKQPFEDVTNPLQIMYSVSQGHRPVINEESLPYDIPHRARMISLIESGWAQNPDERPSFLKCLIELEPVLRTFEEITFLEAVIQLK
T2 sequence (O43353 1-310 limits assumed): as the sequence (O43353 1-310) above

Structure (SMILES) | IC50 [1] [µM] | IC50 [2, 4] [nM] | Emax [3] [%] | IC50 ([3]; read-out: PPI IC50 bin) [µM] | IC50 [2, 5] [nM] | IC50 ([3]; PPI IC50 bin) [µM]
C[C@@H](O)COc1cc2ncc(-c3cc(F)c(N)nc3F)n2cc1S(=O)(=O)C(C)(C)C [Example 171, (R)-1-((3-(6-amino-2,5-difluoropyridin-3-yl)-6-(tert-butylsulfonyl)imidazo[1,2-a]pyridin-7-yl)oxy)propan-2-ol] | 0.05 to 0.25 | 2.5 to 20 | > 80 | 0.0025 to 0.02 |  | 
C[C@H](CO)Oc1cc2ncc(-c3cc(F)c(N)nc3F)n2cc1S(=O)(=O)C(C)(C)C [Example 172, (R)-2-((3-(6-amino-2,5-difluoropyridin-3-yl)-6-(tert-butylsulfonyl)imidazo[1,2-a]pyridin-7-yl)oxy)propan-1-ol] | 0.25 to 1 |  | > 80 |  | 2.5 to 20 | 0.0025 to 0.02
C[C@@H](CO)Oc1cc2ncc(-c3cc(F)c(N)nc3F)n2cc1S(=O)(=O)C(C)(C)C [Example 173, (S)-2-((3-(6-amino-2,5-difluoropyridin-3-yl)-6-(tert-butylsulfonyl)imidazo[1,2-a]pyridin-7-yl)oxy)propan-1-ol] | > 1 |  | > 80 |  | 2.5 to 20 | 0.0025 to 0.02
C[C@@H](CO)COc1cc2ncc(-c3cc(F)c(N)nc3F)n2cc1S(=O)(=O)C(C)(C)C [Example 175, (S)-3-((3-(6-amino-2,5-difluoropyridin-3-yl)-6-(tert-butylsulfonyl)imidazo[1,2-a]pyridin-7-yl)oxy)-2-methylpropan-1-ol] | 0.05 to 0.25 | 1 to 2.5 | > 80 | 0.001 to 0.0025 |  | 
C[C@H](CO)COc1cc2ncc(-c3cc(F)c(N)nc3F)n2cc1S(=O)(=O)C(C)(C)C [Example 176, (R)-3-((3-(6-amino-2,5-difluoropyridin-3-yl)-6-(tert-butylsulfonyl)imidazo[1,2-a]pyridin-7-yl)oxy)-2-methylpropan-1-ol] | 0.05 to 0.25 | 1 to 2.5 | > 80 | 0.001 to 0.0025 |  | 
CC(C)(C)S(=O)(=O)c1cn2c(-c3cc(F)c(N)nc3F)cnc2cc1OCC1(O)CC1 [Example 177, 1-(((3-(6-amino-2,5-difluoropyridin-3-yl)-6-(tert-butylsulfonyl)imidazo[1,2-a]pyridin-7-yl)oxy)methyl)cyclopropan-1-ol] | 0.05 to 0.25 | 1 to 2.5 | > 80 | 0.0025 to 0.02 |  | 
COc1cc2ncc(-c3cc(NS(=O)(=O)C4(CO)CC4)c(OC)c(OC)c3)n2cc1S(=O)(=O)C(C)(C)C [Example 178, N-(5-(6-(tert-butylsulfonyl)-7-methoxyimidazo[1,2-a]pyridin-3-yl)-2,3-dimethoxyphenyl)-1-(hydroxymethyl)cyclopropane-1-sulfonamide] | < 0.05 | < 1 | > 80 | < 0.001 |  | 
COc1cc2ncc(-c3cccc(NS(=O)(=O)C4(CO)CC4)c3)n2cc1S(=O)(=O)C(C)(C)C [Example 179, N-(3-(6-(tert-butylsulfonyl)-7-methoxyimidazo[1,2-a]pyridin-3-yl)phenyl)-1-(hydroxymethyl)cyclopropane-1-sulfonamide] | > 1 | 2.5 to 20 | 55 to 80 | 0.0025 to 0.02 |  | 
COc1cc2ncc(-c3cc(F)c(OC)c(NS(=O)(=O)C4(CO)CC4)c3)n2cc1S(=O)(=O)C(C)(C)C [Example 180, N-(5-(6-(tert-butylsulfonyl)-7-methoxyimidazo[1,2-a]pyridin-3-yl)-3-fluoro-2-methoxyphenyl)-1-(hydroxymethyl)cyclopropane-1-sulfonamide] | 0.05 to 0.25 | 1 to 2.5 | > 80 | < 0.001 |  | 
COc1cn2ncc(-c3cc(F)c(OC)c(NS(=O)(=O)C4(CO)CC4)c3)c2cc1S(=O)(=O)C(C)(C)C [Example 181, N-(5-(5-(tert-butylsulfonyl)-6-methoxypyrazolo[1,5-a]pyridin-3-yl)-3-fluoro-2-methoxyphenyl)-1-(hydroxymethyl)cyclopropane-1-sulfonamide] | < 0.05 | < 1 | > 80 | < 0.001 |  | 
COc1c(F)cc(-c2cnc3cc(OC[C@@H](C)CO)c(S(=O)(=O)C(C)(C)C)cn23)cc1NS(C)(=O)=O [Example 182, (S)-N-(5-(6-(tert-butylsulfonyl)-7-(3-hydroxy-2-methylpropoxy)imidazo[1,2-a]pyridin-3-yl)-3-fluoro-2-methoxyphenyl)methanesulfonamide] | < 0.05 | < 1 | 55 to 80 | < 0.001 |  | 
COc1c(F)cc(-c2cnc3cc(OC[C@H](C)CO)c(S(=O)(=O)C(C)(C)C)cn23)cc1NS(C)(=O)=O [Example 183, (R)-N-(5-(6-(tert-butylsulfonyl)-7-(3-hydroxy-2-methylpropoxy)imidazo[1,2-a]pyridin-3-yl)-3-fluoro-2-methoxyphenyl)methanesulfonamide] | < 0.05 | < 1 | 55 to 80 | < 0.001 |  | 
COc1cc2ncc(-c3cc(F)c(OC)c4[nH]c(CCO)nc34)n2cc1S(=O)(=O)C(C)(C)C [Example 184, 2-(4-(6-(tert-butylsulfonyl)-7-methoxyimidazo[1,2-a]pyridin-3-yl)-6-fluoro-7-methoxy-1H-benzo[d]imidazol-2-yl)ethan-1-ol] | 0.25 to 1 | 1 to 2.5 | 30 to 55 | 0.001 to 0.0025 |  | 
COc1cc2ncc(-c3cc(F)c(OC)c4[nH]c(CN5CC(O)C5)nc34)n2cc1S(=O)(=O)C(C)(C)C [Example 185, 1-((4-(6-(tert-butylsulfonyl)-7-methoxyimidazo[1,2-a]pyridin-3-yl)-6-fluoro-7-methoxy-1H-benzo[d]imidazol-2-yl)methyl)azetidin-3-ol] | 0.05 to 0.25 | 2.5 to 20 | 30 to 55 | 0.001 to 0.0025 |  | 
CC(C)(C)S(=O)(=O)c1cn2c(-c3cc(Br)c(N)nc3F)cnc2cc1OCCO [Example 186, 2-((3-(6-amino-5-bromo-2-fluoropyridin-3-yl)-6-(tert-butylsulfonyl)imidazo[1,2-a]pyridin-7-yl)oxy)ethan-1-ol] | 0.25 to 1 | 2.5 to 20 | > 80 | 0.0025 to 0.02 |  | 
CC(C)(C)S(=O)(=O)c1cc2c(-c3cc(Cl)c(N)nc3F)cnn2cc1OCCOP(=O)(O)O [Example 187, 2-((3-(6-amino-5-chloro-2-fluoropyridin-3-yl)-5-(tert-butylsulfonyl)pyrazolo[1,5-a]pyridin-6-yl)oxy)ethyl dihydrogen phosphate] | 0.25 to 1 | 2.5 to 20 | > 80 | 0.0025 to 0.02 |  | 
CC(C)(C)S(=O)(=O)c1cc2c(-c3cc(F)c(N)nc3F)cnn2cc1OCCOP(=O)(O)O [Example 188, 2-((3-(6-amino-2,5-difluoropyridin-3-yl)-5-(tert-butylsulfonyl)pyrazolo[1,5-a]pyridin-6-yl)oxy)ethyl dihydrogen phosphate] | > 1 | > 20 | > 80 | > 0.02 |  | 
CC(C)(C)C(C)(O)c1cn2c(-c3cc(F)c(N)nc3F)cnc2cc1OCCO (centres unmarked) [Example 189, 2-(3-(6-amino-2,5-difluoropyridin-3-yl)-7-(2-hydroxyethoxy)imidazo[1,2-a]pyridin-6-yl)-3,3-dimethylbutan-2-ol] | > 1 | > 20 |  | > 0.02 |  | 
